# Test: not given
# Details: from prior patents / known; cited from earlier work
row,Compound,CNS effect reported in prior publications
1,NC(=O)N1c2ccccc2C=Cc2ccccc21 [carbamazepine],nootropic effects
2,O=C1CC(c2ccc(Cl)cc2)CN1 (stereo not drawn) [4-(4-chlorophenyl)-pyrrolidin-2-one],anticonvulsive effect
3,CCCC(CCC)C(=O)N1CCCC1=O [N-dipropylacetylpyrrolidin-2-one],nootropic effects
4,CCCC(CCC)C(=O)O [dipropylacetic acid],nootropic effects

# Test: in vivo
# Details: mouse, ip
row,Compound,LD50
1,CCCC(CCC)C(=O)N1CC(c2ccccc2)CC1=O (stereo not drawn) [compound 1],1630 mg/kg
2,COc1ccc(C(=O)N2CC(c3ccccc3)CC2=O)cc1 (stereo not drawn) [compound 3],> 2000 mg/kg
3,COc1ccc(C(=O)N2CC(c3ccc(Cl)cc3)CC2=O)cc1 (stereo not drawn) [compound 4],> 2000 mg/kg
4,O=C(COc1ccc(Cl)cc1)N1CC(c2ccc(Cl)cc2)CC1=O (stereo not drawn) [compound 5],> 2000 mg/kg
5,CCOC(=O)C1C(=O)N(C(=O)c2ccc(OC)cc2)CC1c1ccccc1 (stereo not drawn) [compound 6],> 2000 mg/kg
6,CCCC(CCC)C(=O)O [Ca-Valproate],455 mg/kg
7,CCCC(CCC)C(=O)N1CC(c2ccc(Cl)cc2)CC1=O (stereo not drawn) [compound 2],> 2000 mg/kg
8,NC(=O)CN1CCCC1=O [Piracetam],> 2000 mg/kg

# Source: patent US5441973A, “N-acyl-4-phenyl-pyrrolidin-2-ones and method for preparing” (Arzneimittelwerk Dresden G.m.b.H., priority 1990, dated 1995)
